In brackets after ≈: the same amount, converted by molar mass. Blank lines part the entries; values can stand above or below the compound they belong to.
Legend:
B. fragilis API 7716 = assay: Antibacterial activity (MIC); type: cell-based; settings: Bacteroides fragilis, API7716
[1] = system: B. thuringiensis CIP 104676; assay: Antibacterial activity (MIC); type: cell-based; settings: Bacillus thuringiensis, CIP104676; B. thuringiensis CIP 104676; read-out: MIC
E. coli CIP 54127 = assay: Antibacterial activity (MIC); type: cell-based; settings: Escherichia coli, CIP54127; E. coli CIP 54127; read-out: MIC
S. pneumoniae PRSP = assay: Antibacterial activity (MIC), Table VII; type: cell-based; settings: Streptococcus pneumoniae; S. pneumoniae PRSP (Table VII); read-out: MIC
[2] = system: E. faecalis VRE CIP 104676; assay: Antibacterial activity (MIC/MBC); type: cell-based, Enterococcus faecalis; settings: Enterococcus faecalis; E. faecalis VRE CIP 104676; read-out: MIC
S. aureus NorA 1199B = assay: Antibacterial activity (MIC); type: cell-based, Staphylococcus aureus; settings: Staphylococcus aureus, NORA1199B
[3] = system: Staphylococcus aureus MSSA CIP 4.83; assay: Antibacterial activity (MIC/MBC); type: cell-based; settings: Staphylococcus aureus; S. aureus MSSA CIP 4.83; read-out: MIC
P. aeruginosa CIP 103467 = assay: Antibacterial activity (MIC); type: cell-based; settings: Pseudomonas aeruginosa, CIP103467; P. aeruginosa CIP 103467; read-out: MIC
B. subtilis CIP 5262 = assay: Antibacterial activity (MIC); type: cell-based; settings: Bacillus subtilis, CIP5262; B. subtilis CIP 5262; read-out: MIC
H. influenzae CIP 102514 = assay: Antibacterial activity (MIC/MBC); type: cell-based, Haemophilus influenzae; settings: Haemophilus influenzae, CIP102514; H. influenzae CIP 102514; read-out: MIC
[4] = system: S. pneumoniae PRSP clinical isolate; assay: Antibacterial activity (MIC/MBC); type: cell-based, Streptococcus pneumoniae; settings: Streptococcus pneumoniae, PRSP, read-out: MIC
S. pneumoniae mefE = assay: Antibacterial activity (MIC); type: cell-based; settings: Streptococcus pneumoniae; S. pneumoniae mefE (macrolide-resistant by efflux)
[5] = system: S. pneumoniae PSSP CQI 201; assay: Antibacterial activity (MIC); type: cell-based, Streptococcus pneumoniae; settings: Streptococcus pneumoniae; S. pneumoniae PSSP CQI 201; read-out: MIC
S. pyogenes CIP 56.41T = assay: Antibacterial activity (MIC/MBC); type: cell-based, Streptococcus pyogenes; settings: Streptococcus pyogenes, CIP56; S. pyogenes CIP 56.41T; read-out: MIC
[6] = system: S. aureus MRSA clinical isolate; assay: Antibacterial activity (MIC); type: cell-based, Staphylococcus aureus; settings: Staphylococcus aureus; S. aureus MRSA clinical isolate; read-out: MIC
[7] = system: S. epidermidis MSCNS (D10); assay: Antibacterial activity (MIC); type: cell-based; settings: Staphylococcus epidermidis; S. epidermidis MSCNS (D10); read-out: MIC
[8] = system: S. epidermidis MRCNS (E93); assay: Antibacterial activity (MIC); type: cell-based; settings: Staphylococcus epidermidis; S. epidermidis MRCNS (E93); read-out: MIC
[9] = system: E. faecium VRE VanA CIP107387; assay: Antibacterial activity (MIC); type: cell-based; settings: Enterococcus faecium; E. faecium VRE VanA CIP107387; read-out: MIC
[10] = system: S. aureus VISA CIP 106757; assay: Antibacterial activity (MIC); type: cell-based; settings: Staphylococcus aureus; S. aureus VISA CIP 106757; read-out: MIC
C. difficile CIP 104282 = assay: Antibacterial activity (MIC); type: cell-based, Clostridium difficile; settings: Clostridioides difficile, CIP104282; C. difficile CIP 104282; read-out: MIC
[11] = system: S. pneumoniae PRSP (CQR 162); assay: Antibacterial activity (MIC); type: cell-based; settings: Streptococcus pneumoniae; S. pneumoniae PRSP (CQR 162); read-out: MIC
[12] = system: Staphylococcus aureus MSSA 53.154; assay: Murine experimental septicaemia, in vivo efficacy; set-up: species or system mice; settings: sc, mice, subcutaneously at 1 and 6 h post infection, survival on day 9, hybrid molecules formulated in water as their bis(hydrochloride) salt, read-out: ED50
Protocol: Experimental septicaemia was induced in mice as follows. Briefly, male Swiss OF1 mice (IFFA CREDO-Charles River) weighing 18 to 20 grams were infected intraperitoneally with 0.5 mL of a bacterial suspension containing 8.5×10^7 cfu of Staphylococcus aureus MSSA 53.154 (Institut Pasteur). The hybrid molecules were administered subcutaneously at 1 and 6 h post infection. Control and treatment groups at each dose were composed of seven mice. All the infected but untreated control mice died within 9 days. The 50% effective dose (ED50) values were calculated by a computerized program (GraphPad) from the survival rates on day 9 after infection.

S. aureus MsrA PUL 5054 = assay: Antibacterial activity (MIC); type: cell-based; settings: Staphylococcus aureus
[13] = system: Human lung fibroblast cells (ATCC CCL-171); assay: Cytotoxicity (MTT) assay; settings: human, 18 hr
Protocol: Cellular toxicity was measured by a colorimetric assay that makes use of the tetrazolium salt, MTT. Human lung fibroblast cells (ATCC CCL-171) were plated in 96-well plates at 10^4 cells per well and incubated under 5% CO2 at 37° C. for 24 hr to allow adherence of cells to the plate. Test compounds were prepared as a stock solution at 1 mg/mL in 1% DMSO/water and diluted with water for the serial dilutions (500-7.8 μg/mL). Cells underwent a 18 hr treatment under 5% CO2 at 37° C. with experimental drugs. Corresponding controls received either no drug treatment or treatment with SDS (sodium dodecyl sulfate). The optical density of each sample was read on a microplate spectrophotometer reader at 600 nm and cell survival was expressed as a fraction of that of untreated controls. A drug is said cytotoxic when this fraction is ≦−30%

[14] = system: E. faecalis VRE VanA CIP106996; assay: Antibacterial activity (MIC); type: cell-based; settings: Enterococcus faecalis; E. faecalis VRE VanA CIP106996; read-out: MIC
[15] = system: E. faecalis VRE VanB CIP106998; assay: Antibacterial activity (MIC); type: cell-based; settings: Enterococcus faecalis; E. faecalis VRE VanB CIP106998; read-out: MIC

SMILES: Cl.O=C(O)c1cn(C2CC2)c2cc(N3CCN(CCNc4ccnc5cc(Cl)ccc45)CC3)c(F)cc2c1=O [PA 1127, 7-{4-[2-(7-Chloroquinolin-4-ylamino)-ethyl]-piperazin-1-yl}-1-cyclopropyl-6-fluoro-4-oxo-1,4-dihydroquinoline-3-carboxylic acid hydrochloride]
- MIC [1]: 0.625 µg/mL
- MIC (E. coli CIP 54127): 0.156 µg/mL
- MIC (S. pneumoniae PRSP): 2.5 µg/mL
- MIC [2]: 1.25 µg/mL
- MIC (S. aureus NorA 1199B): 3 µg/mL
- MIC [3]: 1.25 µg/mL
- MIC (P. aeruginosa CIP 103467): 5 µg/mL
- MIC (B. subtilis CIP 5262): 0.312 µg/mL
- MIC (H. influenzae CIP 102514): 0.156 µg/mL

SMILES: CC[C@H]1OC(=O)[C@H](C)[C@@H](O[C@H]2C[C@@](C)(OC)[C@@H](O)[C@H](C)O2)[C@H](C)[C@@H](O[C@@H]2O[C@H](C)C[C@H](N(C)C)[C@H]2O)[C@](C)(O)C[C@@H](C)C(=O)[C@H](C)[C@@H](O)[C@]1(C)O [Erythromycin, reference compound]
- MIC [4]: > 5 µg/mL
- MIC (S. pneumoniae mefE): 5 µg/mL (≈ 6.81 µM)
- MIC [5]: 0.039 µg/mL (≈ 0.0531 µM)
- MIC [3]: 0.156 µg/mL (≈ 0.213 µM)
- MIC (S. pyogenes CIP 56.41T): 0.039 µg/mL (≈ 0.0531 µM)
- MIC [6]: 0.156 µg/mL (≈ 0.213 µM)

SMILES: CN[C@H](CC(C)C)C(=O)N[C@H]1C(=O)N[C@@H](CC(N)=O)C(=O)N[C@H]2C(=O)N[C@H]3C(=O)N[C@H](C(=O)N[C@H](C(=O)O)c4cc(O)cc(O)c4-c4cc3ccc4O)[C@H](O)c3ccc(c(Cl)c3)Oc3cc2cc(c3OC2OC(CO)C(O)C(O)C2OC2CC(C)(NCc3ccc(OCCNc4ccnc5cc(Cl)ccc45)cc3)C(O)C(C)O2)Oc2ccc(cc2Cl)[C@H]1O (some centres unmarked) [PA 1157, N-4-{4-[2-(7-Chloroquinolin-4-ylamino)ethoxy]-benzyl}-vancomycin]
- MIC [7]: 0.05 µg/mL (≈ 0.0284 µM)
- MIC [8]: 0.003 µg/mL (≈ 0.0017 µM)
- MIC [9]: 6.25 µg/mL (≈ 3.55 µM)
- MIC [10]: 0.1 µg/mL (≈ 0.0568 µM)
- MIC (C. difficile CIP 104282): 0.078 µg/mL (≈ 0.0443 µM)
- MIC [5]: 0.003 µg/mL (≈ 0.0017 µM)
- MIC [11]: 0.003 µg/mL (≈ 0.0017 µM)
- ED50 [12]: 0.09 mg/kg
- MIC [3]: 0.012 µg/mL (≈ 0.00682 µM)
- MIC (S. aureus MsrA PUL 5054): < 0.045 µg/mL
- MIC (S. pyogenes CIP 56.41T): 0.125 µg/mL (≈ 0.071 µM)
- % of survival cells compared to the untreated controls ([13]; 7.8 μg/mL): −22.0%
- % of survival cells compared to the untreated controls ([13]; 15.6 μg/mL): −22.5%
- % of survival cells compared to the untreated controls ([13]; 31.2 μg/mL): −24.2%
- % of survival cells compared to the untreated controls ([13]; 62.5 μg/mL): −24.9%
- % of survival cells compared to the untreated controls ([13]; 125 μg/mL): −26.9%
- % of survival cells compared to the untreated controls ([13]; 250 μg/mL): −26.2%
- % of survival cells compared to the untreated controls ([13]; 500 μg/mL): −29.2%
- MIC [6]: 0.2 µg/mL (≈ 0.114 µM)
- MIC [14]: 3.12 µg/mL (≈ 1.78 µM)
- MIC [15]: 6.25 µg/mL (≈ 3.55 µM)

Next, values leading:

- MIC (B. fragilis API 7716): 3.12 µg/mL (≈ 8.54 µM)
SMILES: Cc1ncc([N+](=O)[O-])n1CCNc1ccnc2cc(C(F)(F)F)ccc12 [PA 1130, [2-(2-Methyl-5-nitroimidazol-1-yl)-ethyl]-(7-trifluoromethylquinolinyl-4-yl)-amine]

- MIC (B. fragilis API 7716): 0.78 µg/mL (≈ 2.35 µM)
SMILES: Cc1ncc([N+](=O)[O-])n1CCNc1ccnc2cc(Cl)ccc12 [PA 1129, (7-Chloroquinolin-4-yl)-[2-(2-methyl-5-nitroimidazol-1-yl)-ethyl]-amine]
